Results published in US8916565B2, “Pyrrolopyrazine-spirocyclic piperidine amides as modulators of ion channels” (priority 2011, dated 2014).
pIC50: −log10 of the molar value.

Target: human NaV subtype, like NaV 1.7 (Homo sapiens, UniProt Q15858)
Assay: E-VIPR optical membrane potential assay with electrical stimulation
Type: cell-based
Details: active against one or more sodium channels; Table 3 does not name the assay or NaV subtype; read-out: Binned Activity Data (IC50)
Excerpt: Assays for Detecting and Measuring NaV Inhibition Properties of Compound E-VIPR Optical Membrane Potential Assay Method with Electrical Stimulation
Sodium channels are voltage-dependent proteins that can be activated by inducing membrane voltage changes by applying electric fields. The electrical stimulation instrument and methods of use are described in Ion Channel Assay Methods PCT/US01/21652, herein incorporated by reference and are referred to as E-VIPR. The instrument comprises a microtiter plate handler, an optical system for exciting the coumarin dye while simultaneously recording the coumarin and oxonol emissions, a waveform generator, a current- or voltage-controlled amplifier, and a device for inserting electrodes in well. Under integrated computer control, this instrument passes user-programmed electrical stimulus protocols to cells within the wells of the microtiter plate.
24 hours before the assay on E-VIPR, HEK cells expressing human NaV subtype, like NaV 1.7, are seeded in 384-well poly-lysine coated plates at 15,000-20,000 cells per well. Other subtypes are performed in an analogous mode in a cell line expressing the NaV of interest. HEK cells are grown in media (exact composition is specific to each cell type and NaV subtype) supplemented with 10% FBS (Fetal Bovine Serum, qualified; GibcoBRL #16140-071) and 1% Pen-Strep (Penicillin-Streptomycin; GibcoBRL #15140-122). Cells are grown in vented cap flasks, in 90% humidity and 10% CO2, to 100% confluence. They are usually split by trypsinization 1:10 or 1:20, depending on scheduling needs, and grown for 2-3 days before the next split.
Bath 1 buffer. Glucose 10 mM (1.8 g/L), Magnesium Chloride (Anhydrous), 1 mM (0.095 g/L), Calcium Chloride, 2 mM (0.222 g/L), HEPES 10 mM (2.38 g/L), Potassium Chloride, 4.5 mM (0.335 g/L), Sodium Chloride 160 mM (9.35 g/L).
Hexyl Dye Solution: Bath 1 Buffer+0.5% β-cyclodextrin (make this prior to use, Sigma #C4767), 8 μM CC2-DMPE+2.5 μM DiSBAC6(3). To make the solution Add volume of 10% Pluronic F127 stock equal to volumes of CC2-DMPE+DiSBAC6(3). The order of preparation is first mix Pluronic and CC2-DMPE, then add DiSBAC6(3) while vortexing, then add Bath 1+β-Cyclodextrin.
1) Pre-spot compounds (in neat DMSO) into compound plates. Vehicle control (neat DMSO), the positive control (20 mM DMSO stock tetracaine, 125 μM final in assay) and test compounds are added to each well at 160× desired final concentration in neat DMSO. Final compound plate volume will be 80 μL (80-fold intermediate dilution from 1 μL DMSO spot; 160-fold final dilution after transfer to cell plate). Final DMSO concentration for all wells in assay is 0.625%.
2) Prepare Hexyl Dye Solution.
3) Prepare cell plates. On the day of the assay, medium is aspirated and cells are washed three times with 100 μL of Bath 1 Solution, maintaining 25 μL residual volume in each well.
4) Dispense 25 μL per well of Hexyl Dye Solution into cell plates. Incubate for 20-35 minutes at room temp or ambient conditions.
5) Dispense 80 μL per well of Bath 1 into compound plates. Acid Yellow-17 (1 mM) is added and Potassium Chloride can be altered from 4.5 to 20 mM depending on the NaV subtype and assay sensitivity.
6) Wash cell plates three times with 100 μL per well of Bath1, leaving 25 μL of residual volume. Then transfer 25 uL per well from Compound Plates to Cell Plates. Incubate for 20-35 minutes at room temp/ambient condition
7) Read Plate on E-VIPR. Use the current-controlled amplifier to deliver stimulation wave pulses for typically 9 seconds and a scan rate of 400 Hz. A pre-stimulus recording is performed for 0.5 seconds to obtain the un-stimulated intensities baseline. The stimulatory waveform is applied for 9 seconds followed by 0.5 seconds of post-stimulation recording to examine the relaxation to the resting state.

human NaV subtype, like NaV 1.7, sequence (Q15858 whole entry): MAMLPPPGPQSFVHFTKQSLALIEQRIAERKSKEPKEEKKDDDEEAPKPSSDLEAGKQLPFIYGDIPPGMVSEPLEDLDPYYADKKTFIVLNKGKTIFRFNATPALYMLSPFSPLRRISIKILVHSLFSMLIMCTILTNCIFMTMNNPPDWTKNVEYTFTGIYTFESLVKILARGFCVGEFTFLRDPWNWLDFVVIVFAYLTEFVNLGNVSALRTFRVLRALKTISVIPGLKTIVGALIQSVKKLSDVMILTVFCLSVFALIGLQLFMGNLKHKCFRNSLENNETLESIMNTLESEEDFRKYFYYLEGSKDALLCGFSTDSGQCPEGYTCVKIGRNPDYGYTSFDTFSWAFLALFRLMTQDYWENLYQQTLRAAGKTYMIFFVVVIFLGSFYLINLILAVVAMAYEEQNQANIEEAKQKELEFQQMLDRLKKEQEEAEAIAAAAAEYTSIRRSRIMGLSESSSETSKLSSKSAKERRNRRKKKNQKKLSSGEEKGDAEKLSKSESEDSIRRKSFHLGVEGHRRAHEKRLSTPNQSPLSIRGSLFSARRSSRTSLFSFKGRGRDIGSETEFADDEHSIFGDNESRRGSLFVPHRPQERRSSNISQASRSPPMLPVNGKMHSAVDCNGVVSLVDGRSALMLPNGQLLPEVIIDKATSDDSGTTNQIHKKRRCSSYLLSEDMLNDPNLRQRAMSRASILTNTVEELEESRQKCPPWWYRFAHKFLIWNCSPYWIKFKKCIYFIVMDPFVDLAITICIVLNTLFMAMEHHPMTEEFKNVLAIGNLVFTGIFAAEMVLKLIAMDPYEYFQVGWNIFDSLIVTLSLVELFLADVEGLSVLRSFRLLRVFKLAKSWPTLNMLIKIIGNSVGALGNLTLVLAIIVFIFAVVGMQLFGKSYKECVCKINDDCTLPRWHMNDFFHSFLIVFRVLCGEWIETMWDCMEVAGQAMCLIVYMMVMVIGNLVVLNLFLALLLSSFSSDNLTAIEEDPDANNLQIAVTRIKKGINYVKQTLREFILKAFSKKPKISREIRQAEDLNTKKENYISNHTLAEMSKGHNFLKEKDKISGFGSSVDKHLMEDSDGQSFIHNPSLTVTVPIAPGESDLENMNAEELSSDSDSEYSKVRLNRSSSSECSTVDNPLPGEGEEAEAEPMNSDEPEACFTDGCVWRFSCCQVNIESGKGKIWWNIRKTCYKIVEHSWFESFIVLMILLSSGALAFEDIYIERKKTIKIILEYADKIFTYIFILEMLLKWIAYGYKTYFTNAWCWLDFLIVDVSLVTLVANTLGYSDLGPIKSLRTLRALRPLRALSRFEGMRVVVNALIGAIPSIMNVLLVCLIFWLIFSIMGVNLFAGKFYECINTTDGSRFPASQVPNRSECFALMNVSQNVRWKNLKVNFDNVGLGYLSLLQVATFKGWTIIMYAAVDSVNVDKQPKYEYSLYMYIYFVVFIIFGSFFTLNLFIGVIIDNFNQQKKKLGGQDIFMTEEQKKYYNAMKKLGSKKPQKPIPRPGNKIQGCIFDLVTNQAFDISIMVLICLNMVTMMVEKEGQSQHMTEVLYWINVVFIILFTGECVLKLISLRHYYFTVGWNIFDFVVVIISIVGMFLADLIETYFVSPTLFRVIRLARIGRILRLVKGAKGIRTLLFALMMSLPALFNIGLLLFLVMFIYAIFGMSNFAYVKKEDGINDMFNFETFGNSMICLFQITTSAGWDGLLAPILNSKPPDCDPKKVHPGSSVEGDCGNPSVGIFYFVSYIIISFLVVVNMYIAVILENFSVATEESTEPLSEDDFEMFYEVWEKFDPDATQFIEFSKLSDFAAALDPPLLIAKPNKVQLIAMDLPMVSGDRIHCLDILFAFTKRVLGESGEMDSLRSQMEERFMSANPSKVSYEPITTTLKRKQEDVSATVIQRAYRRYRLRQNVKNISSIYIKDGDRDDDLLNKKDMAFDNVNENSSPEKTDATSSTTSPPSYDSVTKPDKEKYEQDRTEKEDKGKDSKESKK

SMILES	pIC50
Cc1cc(C(=O)N2CCC3(CC2)c2ccc(C(=O)C(F)(F)F)n2CCN3C)ccc1Cl [Compound 1]	5.30 to 5.70
COc1cc(C(=O)N2CC[C@]3(c4ccc(C(F)(F)F)n4CCN3C)[C@H](F)C2)ccc1OC(C)C [Compound 3]	< 5.30
COc1cc(C(=O)N2CCC3(CC2)NCC(=O)n2c(C(F)(F)F)ccc23)ccc1OC(C)C [Compound 4]	< 5.30
CC(C)Oc1ccc(C(=O)N2CCC3(CC2)c2ccc(C(=O)C(F)(F)F)n2C(C)(C)CN3C)cc1F [Compound 16]	5.30 to 5.70
COc1cc(C(=O)N2CCC3(CC2)c2ccc(C(=O)C(F)(F)F)n2CCN3C)ccc1COCC(F)(F)F [Compound 17]	≥ 5.70
CCCOc1ccc(C(=O)N2CCC3(CC2)c2c(F)cc(C(F)(F)F)n2CCN3C)cc1 [Compound 18]	≥ 5.70
CN1CCn2c(C(=O)C3(C)CC3)ccc2C12CCN(C(=O)c1ccc(O)c(Cl)c1)CC2 [Compound 19]	≥ 5.70
CCCCCc1ccc(C(=O)N2CCC3(CC2)c2ccc(Cl)n2CCN3C)cc1 [Compound 20]	≥ 5.70
CN1CCn2c(C(F)(F)F)ccc2C12CCN(C(=O)c1cnn3c(C(F)F)cc(C4CC4)nc13)CC2 [Compound 21]	< 5.30
CC(C)Oc1ccc(C(=O)N2CCC3(CC2)c2ccc(C(F)(F)F)n2CCN3C)nc1 [Compound 22]	< 5.30
CN1CCn2c(C(F)(F)F)cc(F)c2C12CCN(C(=O)c1ccc(S(=O)(=O)C(F)F)cc1)CC2 [Compound 23]	≥ 5.70
CCNS(=O)(=O)c1ccc(C(=O)N2CCC3(CC2)c2ccc(Cl)n2CCN3C)cc1 [Compound 24]	5.30 to 5.70
CC(C)Oc1ccc(C(=O)N2CCC3(CC2)c2ccc(Cl)n2CCN3C)cc1F [Compound 25]	< 5.30
CCc1ccc(C(=O)N2CCC3(CC2)c2ccc(C(=O)C(F)(F)F)n2CCN3C)cc1 [Compound 26]	5.30 to 5.70
CN1CCn2c(C(F)(F)F)ccc2C12CCN(C(=O)c1ccccc1Oc1ccccc1)CC2 [Compound 27]	≥ 5.70
Cc1cc(C(=O)N2CCC3(CC2)c2ccc(C(F)(F)F)n2CCN3C)ccc1S(=O)(=O)NC1CC1 [Compound 28]	≥ 5.70
COc1cc(C(=O)N2CCC3(CC2)c2ccc(C(F)(F)F)n2C[C@H](C)N3C)ccc1OC(C)C [Compound 29]	≥ 5.70
CC(=O)c1cc2n(c1)CC(C)(C)NC21CCN(C(=O)c2ccc(OC(C)C)c(Cl)c2)CC1 [Compound 30]	< 5.30

Other lines, results leading:

pIC50	SMILES
≥ 5.70	Cc1cc(C(=O)N2CCC3(CC2)c2ccc(C(F)(F)F)n2CCN3C)ccc1S(=O)(=O)C(C)C [Compound 2]
≥ 5.70	CC(=O)c1ccc2n1CCN(C)C21CCN(C(=O)c2ccc(CC(C)C)cc2)CC1 [Compound 5]
≥ 5.70	CN1CCn2c(C(=O)C(F)(F)F)ccc2C12CCN(C(=O)c1ccc(OC(C)(C)C)cc1)CC2 [Compound 6]
≥ 5.70	CNS(=O)(=O)c1ccc(C(=O)N2CCC3(CC2)c2ccc(C(F)(F)F)n2CCN3C)cc1C [Compound 7]
≥ 5.70	CC1CN(C)C2(CCN(C(=O)c3ccc(COCCC(F)(F)F)cc3)CC2)c2ccc(C(=O)C(F)(F)F)n21 (stereo not drawn) [Compound 8]
≥ 5.70	COc1cc(C(=O)N2CCC3(CC2)c2c(Cl)cc(C(F)(F)F)n2CCN3C)ccc1OC(C)C [Compound 9]
≥ 5.70	Cc1cc(C(=O)N2CCC3(CC2)c2ccc(Cl)n2CCN3C)ccc1C(C)(C)O [Compound 10]
≥ 5.70	CC(C)Oc1ccc(C(=O)N2CCC3(CC2)c2ccc(CC(F)(F)F)n2CCN3C)cc1Cl [Compound 11]
≥ 5.70	CN1CCn2c(C(=O)C(F)(F)F)ccc2C12CCN(C(=O)c1ccc(C(C)(C)C)cc1)CC2 [Compound 12]
≥ 5.70	CNS(=O)(=O)c1ccc(C(=O)N2CCC3(CC2)c2ccc(C(F)(F)C(F)(F)F)n2CCN3C)cc1C [Compound 13]
≥ 5.70	COc1ccc(C(=O)N2CCC3(CC2)c2ccc(C(=O)C(F)(F)F)n2C[C@H](C)N3C)cc1C [Compound 14]
≥ 5.70	COc1ccc(C(=O)N2CCC3(CC2)c2ccc(C(=O)C(F)(F)F)n2C(C)CN3C)nc1C (stereo not drawn) [Compound 15]
